Structures are written as SMILES.

What is called Cmax is the maximum level reached in the sampled fluid or tissue. A word on the ED50: it is the dose that gives a 50% effect, or the effect in half of the subjects. As usually defined, the IC50 is the concentration that gives 50% inhibition. A low value points to greater potency in that assay. By inhibition in vivo is commonly meant the relative decrease from the control value, in per cent.

Series [1] is described as follows: Cmax value was determined after peroral administration of 20 mg/kg in rat. It counts as ADME, organism-based. On the set-up: dose 20 mg/kg, route oral. The settings on record: in vivo, po.
The test system of series [2] is Rattus norvegicus. Nature of the series: Effective dose of the Compound was determined in vivo by using rat paw edema assay. Format: functional.
For series [3], the target named is Prostaglandin G/H synthase 1 (Homo sapiens, UniProt P23219). Nature of the series: In vitro inhibitory activity against sensitive U-937 microsomal prostaglandin G/H synthase 1.
Series [4] has as its target T1, Prostaglandin G/H synthase 2 (Homo sapiens, UniProt P35354).
T1 sequence (P35354 whole entry): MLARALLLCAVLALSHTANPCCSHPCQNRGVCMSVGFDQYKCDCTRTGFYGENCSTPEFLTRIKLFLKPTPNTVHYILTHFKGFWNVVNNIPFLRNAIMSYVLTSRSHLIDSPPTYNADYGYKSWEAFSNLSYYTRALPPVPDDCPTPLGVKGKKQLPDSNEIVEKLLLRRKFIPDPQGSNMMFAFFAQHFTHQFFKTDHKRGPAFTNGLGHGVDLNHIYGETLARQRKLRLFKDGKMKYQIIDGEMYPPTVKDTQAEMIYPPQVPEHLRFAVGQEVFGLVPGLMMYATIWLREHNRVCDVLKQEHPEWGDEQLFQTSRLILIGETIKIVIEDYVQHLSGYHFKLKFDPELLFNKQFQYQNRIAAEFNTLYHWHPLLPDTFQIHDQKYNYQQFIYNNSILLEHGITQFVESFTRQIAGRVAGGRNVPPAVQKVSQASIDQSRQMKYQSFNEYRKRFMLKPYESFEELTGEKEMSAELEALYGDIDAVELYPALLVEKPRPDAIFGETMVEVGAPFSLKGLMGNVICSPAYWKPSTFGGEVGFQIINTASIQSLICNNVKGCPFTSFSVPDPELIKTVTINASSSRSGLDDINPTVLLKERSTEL
Nature of the series: In vitro inhibitory activity against prostaglandin G/H synthase 2 stably transfected in Chinese hamster ovary (CHO) cells. It counts as cell-based.

Series [5] deals with Rattus norvegicus. Nature of the series: Percent inhibition was determined in vivo by using rat paw edema assay at 10 mg/kg. Format: functional.
Series [6] addresses T1, Prostaglandin G/H synthase 2. Nature of the series: In vitro inhibitory activity against prostaglandin G/H synthase 2 stably transfected in Human whole blood (HWB) cell. Format: tissue-based.
The test system of series [7] is Rattus norvegicus. Nature of the series: Effective dose of the Compound was determined in vivo by using rat pyresis assay. It counts as functional.

Sequence of Prostaglandin G/H synthase 1 (P23219 whole entry): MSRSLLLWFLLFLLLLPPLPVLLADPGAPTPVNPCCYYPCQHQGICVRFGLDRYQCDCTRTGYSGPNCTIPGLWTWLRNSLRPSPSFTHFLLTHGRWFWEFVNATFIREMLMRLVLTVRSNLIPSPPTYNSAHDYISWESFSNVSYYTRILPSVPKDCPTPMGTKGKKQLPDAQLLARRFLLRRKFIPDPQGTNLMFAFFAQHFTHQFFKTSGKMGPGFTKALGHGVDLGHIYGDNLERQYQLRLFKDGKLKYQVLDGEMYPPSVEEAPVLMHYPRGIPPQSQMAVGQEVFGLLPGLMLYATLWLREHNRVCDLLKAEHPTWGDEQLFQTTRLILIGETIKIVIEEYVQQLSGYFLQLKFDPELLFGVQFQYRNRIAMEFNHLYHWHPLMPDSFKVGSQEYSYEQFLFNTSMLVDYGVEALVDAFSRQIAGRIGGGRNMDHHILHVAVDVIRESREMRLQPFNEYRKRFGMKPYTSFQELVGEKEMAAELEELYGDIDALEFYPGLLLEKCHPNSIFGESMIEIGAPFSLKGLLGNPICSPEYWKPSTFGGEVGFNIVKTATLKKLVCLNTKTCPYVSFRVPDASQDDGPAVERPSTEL

In series [1], `CS(=O)(=O)c1ccc(-c2cnn(CC3CC3)c(=O)c2-c2ccc(F)cc2)cc1` yielded a Cmax of 8.5 µM. This compound also showed an ED50 in the series on Rattus norvegicus [2] of 10 mg/kg. The IC50 in series [3] was more than 10 µM.

As to `C[C@@H]1C[C@H]1Cn1ncc(-c2ccc(S(C)(=O)=O)cc2)c(-c2ccc(F)cc2)c1=O`, the highest level in series [1] (Cmax) was 4.8 µM. Further, the IC50 was 0.06 µM in series [4], 1.7 µM in series [6] and 10 µM in series [3]. In the series with Rattus norvegicus [5], this compound registered an inhibition in vivo at 10 mg/kg of 40%.

In series [3], `CC(C)=CCn1ncc(-c2ccc(S(C)(=O)=O)cc2)c(-c2ccc(F)cc2)c1=O` gave an IC50 of 3 µM.

As to `CC1(Cn2ncc(-c3ccc(S(C)(=O)=O)cc3)c(-c3ccc(F)cc3)c2=O)CC1`, the half-inhibitory concentration (IC50) is 0.2 µM in series [4], 0.7 µM in series [6] and 3 µM in series [3].

With `C[C@H]1C[C@H]1Cn1ncc(-c2ccc(S(C)(=O)=O)cc2)c(-c2ccc(F)cc2)c1=O` (racemic), the values for the IC50 in series [4], in series [6] and in series [3] were 0.05 µM, 2.4 µM and 10 µM, respectively.

Consider `CS(=O)(=O)c1ccc(-c2cnn(Cc3cccnc3)c(=O)c2-c2ccccc2)cc1`, for which the results for the IC50 in series [4], in series [6] and in series [3] were 1.3 µM, 7.1 µM and 10 µM, respectively.

As for `CS(=O)(=O)c1ccc(-c2cnn(Cc3ccccc3)c(=O)c2Oc2ccc(Cl)cn2)cc1`, inhibition in series [3] was half-maximal at 10 µM (IC50).

`Cc1ccc(-c2c(-c3ccc(S(C)(=O)=O)cc3)cnn(Cc3ccccc3)c2=O)cn1` gave a Cmax in series [1] of 4.2 µM. In the series with Rattus norvegicus [2], this compound came in with an ED50 of more than 10 mg/kg. Further, the IC50 in series [3] is more than 10 µM.

`CS(=O)(=O)c1ccc(-c2cnn(Cc3ccccc3)c(=O)c2-c2ccccc2)cc1` gave a Cmax in series [1] of 1 µM. Also, the IC50 in series [3] amounted to 10 µM.

`CC(C)(C)n1ncc(-c2ccc(S(C)(=O)=O)cc2)c(-c2ccccc2)c1=O`: the values for the IC50 in series [4], in series [6] and in series [3] were more than 5 µM, more than 33 µM and more than 10 µM, respectively.

Take `CS(=O)(=O)c1ccc(-c2cnn(Cc3nccs3)c(=O)c2-c2ccc(F)cc2)cc1`: the results for the IC50 in series [4], in series [6] and in series [3] were 0.6 µM, 5.9 µM and 10 µM, respectively.

As to `CC(C1CC1)n1ncc(-c2ccc(S(C)(=O)=O)cc2)c(-c2ccc(F)cc2)c1=O` (racemic), the highest level in series [1] (Cmax) was 13 µM. For the same compound, the values for the ED50 in the series on Rattus norvegicus [2] and in the series on Rattus norvegicus [7] were 1.8 mg/kg and more than 10 mg/kg, respectively. For the same compound, the results for the IC50 in series [4], in series [6] and in series [3] were 0.2 µM, 0.7 µM and 10 µM, respectively.

Consider `Cn1ncc(-c2ccc(S(C)(=O)=O)cc2)c(-c2ccccc2)c1=O`, for which the IC50 in series [4] stood at 0.3 µM.

The compound `C[C@H]1C[C@@H]1Cn1ncc(-c2ccc(S(C)(=O)=O)cc2)c(-c2ccc(F)cc2)c1=O` gave a Cmax in series [1] of 16 µM. The results for the ED50 in the series with Rattus norvegicus [2] and with Rattus norvegicus [7] were 0.7 mg/kg and 1.1 mg/kg, respectively. Besides, the IC50 in series [4] turned out to be 0.06 µM; in series [6], 0.3 µM; in series [3], 3 µM.

`C[C@H]1C(Cn2ncc(-c3ccc(S(C)(=O)=O)cc3)c(-c3ccc(F)cc3)c2=O)[C@@H]1C` (mixture of isomers): the IC50 is 0.05 µM in series [4], 0.7 µM in series [6] and 3 µM in series [3].

In turn, `CS(=O)(=O)c1ccc(-c2cnn(Cc3ccccc3)c(=O)c2OCC2CC2)cc1` returned a Cmax in series [1] of 0.8 µM. This compound returned an ED50 with Rattus norvegicus [2] of more than 10 mg/kg. Besides, the IC50 in series [4] stood at 0.003 µM; in series [6] it was 0.36 µM; in series [3], 10 µM.

`CS(=O)(=O)c1ccc(-c2cnn(Cc3ccccc3)c(=O)c2Oc2ccc(F)cc2)cc1` returned an ED50 with Rattus norvegicus [2] of more than 10 mg/kg. Moreover, the IC50 in series [3] amounted to 1 µM.

In series [3], `CS(=O)(=O)c1ccc(-c2cnn(CC3CCCCC3)c(=O)c2-c2ccc(F)cc2)cc1` gave an IC50 of 1 µM.

With `Cc1ccc(-c2c(-c3ccc(S(C)(=O)=O)cc3)cnn(Cc3ccccc3)c2=O)cc1`, the highest level in series [1] (Cmax) was 2.7 µM. Further, the figures for the 50% effective dose (ED50) with Rattus norvegicus [2] and in the series with Rattus norvegicus [7] were 2.2 mg/kg and more than 10 mg/kg, respectively. Also, the IC50 in series [4] was 0.02 µM; in series [3], more than 10 µM.

As for `CC1(C)CC1Cn1ncc(-c2ccc(S(C)(=O)=O)cc2)c(-c2ccc(F)cc2)c1=O` (racemic), the IC50 in series [4] worked out at 0.03 µM; in series [6] it was 0.7 µM; in series [3] it was 3 µM.

`CS(=O)(=O)c1ccc(-c2cnn(C3CC3)c(=O)c2-c2ccc(F)cc2)cc1`: in series [3], half-maximal inhibition (IC50) required 10 µM.

Consider `CS(=O)(=O)c1ccc(-c2cnn(Cc3ccccc3)c(=O)c2Sc2ccccc2)cc1`, for which the IC50 in series [4] came to 0.37 µM; in series [6], 5.9 µM; in series [3], 10 µM.

For the compound `CS(=O)(=O)c1ccc(-c2cnn(-c3ccccc3)c(=O)c2-c2ccccc2)cc1`, the IC50 in series [3] is more than 10 µM.

`CS(=O)(=O)c1ccc(-c2cnn(Cc3cccs3)c(=O)c2-c2ccc(F)cc2)cc1` registered an IC50 in series [3] of 1 µM.

`CS(=O)(=O)c1ccc(-c2cnnc(O)c2-c2ccccc2)cc1`: the half-maximal inhibitory concentration (IC50) in series [4] is more than 5 µM; in series [6], more than 33 µM; in series [3] it was more than 10 µM.

As for `CS(=O)(=O)c1ccc(-c2cnn(CCC3CC3)c(=O)c2-c2ccc(F)cc2)cc1`, the IC50 is 0.2 µM in series [4], 2.9 µM in series [6] and more than 10 µM in series [3].

`CC(C)Oc1c(-c2ccc(S(C)(=O)=O)cc2)cnn(Cc2ccccc2)c1=O` yielded a Cmax in series [1] of 2.8 µM. The ED50 with Rattus norvegicus [2] and with Rattus norvegicus [7] was less than 0.3 mg/kg in each case. The compound also displayed an IC50 in series [3] of more than 10 µM.

These data come from ChEMBL document CHEMBL1136575, “Pyridazinones as selective cyclooxygenase-2 inhibitors” (Bioorg Med Chem Lett, 2003).
